# Laboratory results: paper PMC12226733, “Evolution of iGluR ligand specificity, polyamine regulation, and ion selectivity inferred from a placozoan epsilon receptor” (Communications Biology, 2025)
# Numbering of substitutions follows the chain as printed. Several values for one entry are separate records, joined by “and”; a condition that tells them apart may be missing. Identical values can stand only once. Like-named read-outs stand apart in the source and are kept apart here.
# Columns and labels:
# [1] = target: T1, GluE1αA wildtype receptor (Trichoplax adhaerens, UniProt B3SAW0); conditions: wild type, 10 mM glycine
# T1 sequence (B3SAW0 1-341): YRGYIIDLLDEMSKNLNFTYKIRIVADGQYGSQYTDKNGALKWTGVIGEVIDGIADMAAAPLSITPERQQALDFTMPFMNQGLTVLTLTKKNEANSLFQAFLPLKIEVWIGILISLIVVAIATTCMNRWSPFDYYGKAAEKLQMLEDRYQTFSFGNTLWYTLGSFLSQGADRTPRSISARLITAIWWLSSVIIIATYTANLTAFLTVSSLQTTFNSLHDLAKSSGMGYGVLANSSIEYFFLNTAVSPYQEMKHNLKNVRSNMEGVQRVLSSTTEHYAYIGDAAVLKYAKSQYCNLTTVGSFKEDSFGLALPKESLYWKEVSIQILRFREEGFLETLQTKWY
# GluE1αA m3 variant = target: T2, GluE1αA m3 variant (Trichoplax adhaerens, UniProt B3SAW0, F306Y/I236T/S234G); conditions: 10 mM glutamate
# T2 sequence (B3SAW0 1-341 S234G/I236T/F306Y): T1 sequence (B3SAW0 1-341) with S234G, I236T, F306Y
# GluE1αA wildtype [2] = type: cell-based, Trichoplax adhaerens
# GluE1αA S642N [3] = target: T3, GluE1αA S642N (Trichoplax adhaerens, UniProt B3SAW0, S167N); type: cell-based
# T3 sequence (B3SAW0 1-341 S167N): T1 sequence (B3SAW0 1-341) with S167N
# GluE1αA S642Q [4] = target: T4, GluE1αA S642Q (Trichoplax adhaerens, UniProt B3SAW0, S167Q); type: cell-based
# T4 sequence (B3SAW0 1-341 S167Q): T1 sequence (B3SAW0 1-341) with S167Q
# GluE1αA S642R [5] = type: cell-based, Trichoplax adhaerens
# GluE1αA S642R [6] = type: cell-based, Trichoplax adhaerens; remark: listed apart in the source
# GluE1αA S642Q [7] = target: T4, GluE1αA S642Q; type: cell-based; remark: listed apart in the source
# GluE1αA S642N [8] = target: T3, GluE1αA S642N; type: cell-based; remark: listed apart in the source
# GluE1αA wildtype [9] = type: cell-based, Trichoplax adhaerens; remark: listed apart in the source
# GluE1αA S642Q plus D646A [10] = type: cell-based, Trichoplax adhaerens
# GluE1αA S642Q plus D646A [11] = type: cell-based, Trichoplax adhaerens; remark: listed apart in the source
# GluE1αA D646A [12] = type: cell-based, Trichoplax adhaerens
# GluE1αA D646A [13] = type: cell-based, Trichoplax adhaerens; remark: listed apart in the source
# [14] = target: T5, T. adhaerens GluE1αA receptor (wildtype) (Trichoplax adhaerens, UniProt B3SAW0); conditions: 2 s pulse of 3 mM glycine, wash of increasing duration, 2 s test pulse; single exponential; n = 10
# Text: (§1) The cDNA of the T. adhaerens GluE1αA receptor was cloned into the mammalian expression vector pIRES2-EGFP, using a 5’ nested primer that inserted a mammalian consensus Kozak sequence of […] (Supplementary Table 5). Several mutants/variants of this receptor where also prepared via site directed mutagenesis using standard procedures and primers listed in Supplementary Table 5. For electrophysiological comparisons, we commissioned GenScript (USA) to synthesize the cDNA of the human GluA2 […] receptor (NCBI accession number NP_001077088.2), which was cloned into the pIRES2-EGFP vector with a Kozak sequence flanking the start codon and restriction enzymes SalI and BamHI at the 5’ and 3’ ends of the cDNA, respectively. Receptor cDNAs in the various pIRES2 constructs were transfected into Chinese Hamster Ovary-K1 (CHO-K1; Sigma) cells cultured in Dulbecco’s Modified Eagle Medium Nutrient Mixture F-12 (DMEM/F12) supplemented with 10% Fetal Bovine Serum (FBS) and 1% penicillin-streptomycin at 37°C. Transfections were done with 2 μg of plasmid vector using the transfecting reagent PolyJet^TM (SignaGen Laboratories, USA) according to the manufacturer’s instructions and plated onto glass coverslips in 35 mm dishes the next day. Transfected cells were incubated at 28°C for 2 to 4 days, then coverslips were transferred to a new 60 mm dish with 5 mL of external recording solution. […] Agonists and pharmacological compounds used in this study were dissolved in corresponding external solutions. […] Patch pipettes were pulled using a P-1000 micropipette puller (Sutter, USA), from thick-walled borosilicate tubing (1.5 and 0.86 outer and inner diameter, respectively), to a resistance of between 1 and 6 megaohms.
# [15] = target: T5, T. adhaerens GluE1αA receptor (wildtype); assay: whole-cell patch clamp, agonist-evoked currents in CHO-K1 cells; type: cell-based
# [16] = system: GluE1αA m3 variant (S653G, I655T, F732Y); type: cell-based, Trichoplax adhaerens; conditions: m3
# Text: (§2) As noted, a model has been put forward that defines iGluR ligand specificity based on a set of key amino acids in the LBD of iGluRs[11]. […] To the best of our knowledge, whether these few positions are indeed solely responsible for ligand specificity, and moreover, can be altered to switch specificity for natural ligands, has not been experimentally tested. […] We also created a triple mutant, with an additional phenylalanine to tyrosine mutation at position 732 (F732Y; m3 variant), to make the T. adhaerens epsilon receptor resemble GluN2A and GluA2 receptors from human, reasoning that this mutation might enhance glutamate sensitivity. We also generated a single F732Y mutant (m1 variant), to assess the contribution of this amino acid to ligand specificity in isolation.
# as §1
# [17] = system: GluE1αA m2 variant (S653G, I655T); type: cell-based, Trichoplax adhaerens
# Text: as §2, §1
# [18] = system: GluE1αA m1 variant (F732Y); type: cell-based, Trichoplax adhaerens
# Text: as §2, §1
# [19] = m1, ligand 10 mM, normalized to glycine
smiles,measurement,setting,value
"N#Cc1cc2[nH]c(=O)c(=O)[nH]c2cc1[N+](=O)[O-] [CNQX, 6-cyano-7-nitroquinoxaline-2,3-dione]","current normalized to peak amplitude in the absence of CNQX, Avg",[1]; CNQX 1 µM,0.99
same,"current normalized to peak amplitude in the absence of CNQX, single recording",[1]; CNQX 1 µM,1.07 and 0.91 and 0.98 and 1.00 and 1.01 and 0.97 and 0.94
same,"current normalized to peak amplitude in the absence of CNQX, Avg",[1]; CNQX 10 µM,0.86
same,"current normalized to peak amplitude in the absence of CNQX, single recording",[1]; CNQX 10 µM,0.80 and 0.79 and 0.93 and 0.89 and 0.85 and 0.87
same,"current normalized to peak amplitude in the absence of CNQX, Avg",[1]; CNQX 100 µM,0.29
same,"current normalized to peak amplitude in the absence of CNQX, Avg",GluE1αA m3 variant; CNQX 1 µM,1.22
same,"current normalized to peak amplitude in the absence of CNQX, single recording",GluE1αA m3 variant; CNQX 1 µM,1.09 and 1.17 and 1.15 and 0.98 and 1.22 and 1.35 and 1.57
same,"current normalized to peak amplitude in the absence of CNQX, Avg",GluE1αA m3 variant; CNQX 10 µM,0.42
same,"current normalized to peak amplitude in the absence of CNQX, single recording",GluE1αA m3 variant; CNQX 10 µM,0.44 and 0.38 and 0.42 and 0.52 and 0.35
same,"current normalized to peak amplitude in the absence of CNQX, Avg",GluE1αA m3 variant; CNQX 100 µM,0.08
[Cs+] [Cs],pCs/pCa,GluE1αA wildtype [2],1.08 and 0.98 and 1.16 and 1.36 and 1.19 and 1.14
same,pCs/pCa,GluE1αA S642N [3],5.26 and 5.24 and 5.82 and 3.13 and 4.33 and 4.04
same,pCs/pCa,GluE1αA S642Q [4],8.99 and 7.25 and 7.15 and 8.09 and 7.84 and 7.74 and 7.89
same,pCs/pCa,GluE1αA S642R [5],2.85 and 2.43 and 1.93 and 2.69 and 2.80 and 3.78
same,pCs/pNa,GluE1αA S642R [6],0.92 and 0.78 and 0.83 and 0.84 and 0.81 and 0.79 and 0.82
same,pCs/pNa,GluE1αA S642Q [7],0.77 and 1.08 and 1.06 and 1.15 and 1.01 and 1.25
same,pCs/pNa,GluE1αA S642N [8],1.10 and 1.06 and 1.08 and 0.97 and 0.98 and 0.82
same,"Avg of recordings (Figure S7c, G-V, normalized)",GluE1αA wildtype [9],0.58 and 0.69 and 0.78 and 0.80 and 1.00 and 0.93 and 0.77 and 0.60
same,pCs/pNa,GluE1αA wildtype [9],0.95 and 0.96 and 0.99 and 0.93 and 0.92
same,"Cs vs Ca, Avg (Figure S8e, normalized G-V)",GluE1αA S642Q plus D646A [10],1.00 and 1.03 and 0.98 and 1.02 and 1.15 and 1.27 and 1.40 and 1.41
same,pCs/pCa,GluE1αA S642Q plus D646A [10],7.48 and 6.98 and 7.28 and 7.47 and 4.49 and 4.01 and 6.97 and 6.40
same,pCs/pNa,GluE1αA S642Q plus D646A [11],1.15 and 1.09 and 1.10 and 1.24 and 1.08 and 1.02
same,pCs/pNa,GluE1αA D646A [12],1.01 and 0.96 and 0.98 and 0.97 and 1.08
same,"Cs vs Ca, Avg (Figure S8e, normalized G-V)",GluE1αA D646A [13],1.00 and 0.97 and 0.90 and 0.81 and 0.79 and 0.75 and 0.88
same,pCs/pCa,GluE1αA D646A [13],1.12 and 1.10 and 0.98 and 1.02 and 1.05 and 0.97
NCC(=O)O [glycine],time constant of recovery from desensitization (τ),[14],184 ± 45 ms
same,activation of ligand-gated current,[15],activated
same,"normalized peak inward current, Avg",[15],1.02 and 1.00
same,sensitivity to agonist,[15],robust currents
same,"normalized peak inward current, Avg",[16]; agonist 1 mM,0.0155
same,"normalized peak inward current, Avg","[16]; ligand 10 mM, normalized to glutamate",0.0446
same,"normalized peak inward current, Avg",[17],0.37 and 0.38
same,"normalized peak inward current, single recording",[17],0.36 and 0.37 and 0.44 and 0.40 and 0.28 and 0.49 and 0.42 and 0.34
same,EC50,"[18]; m1 (F732Y) variant, dose response of normalized current",300 ± 40 µM
same,"normalized current (dose response), Avg","[18]; m1, glycine 0.03 mM",0.00429
same,"normalized current (dose response), single recording","[18]; m1, glycine 0.03 mM",0.00434 and 0.00425
same,"normalized current (dose response), Avg","[18]; m1, glycine 0.1 mM",0.0331
same,"normalized current (dose response), Avg","[18]; m1, glycine 0.3 mM",0.50
same,"normalized current (dose response), single recording","[18]; m1, glycine 0.3 mM",0.36 and 0.35 and 0.56 and 0.51 and 0.57 and 0.65 and 0.62
same,"normalized current (dose response), Avg","[18]; m1, glycine 1 mM",0.98
same,"normalized current (dose response), single recording","[18]; m1, glycine 1 mM",0.97 and 1.00 and 0.96
same,"normalized current (dose response), Avg","[18]; m1, glycine 3 mM",0.99
same,"normalized current (dose response), single recording","[18]; m1, glycine 3 mM",1.00 and 0.99 and 0.96
same,"normalized current (dose response), Avg","[18]; m1, glycine […]",0.85
same,"normalized peak inward current, Avg",[18]; [19],1.00
same,"normalized peak inward current, single recording",[18]; [19],0.93 and 1.04 and 1.03 and 0.96
